Results reported in patent US20180177724A1, “SITE-TARGETED NANO-LIPOSOMAL NITROGLYCERIN THERAPEUTICS” (The Regents of the University of California, priority 2015, published 2018).
Like-named read-outs stand apart in the source and are kept apart here.

Legend:
[1] = system: U937 monocytic cell adhesion to L-NIO-treated ECs; experiment: Monocyte adhesion assay, L-NIO-treated (NO-deficient) ECs; assay type: cell-based, human; details: for U937 cell-EC adhesion after 4 hr treatment: L-NIO
Protocol: Human microvascular endothelial cells (HMEC-1) were purchased from the Center for Disease Control (CDC) and cultured on gelatin-coated tissue culture dishes in growth medium composed of MCDB-131 (VWR International, USA) supplemented with 10% FBS (Fisherbrand, USA), 2 mM L-Glutamine (Invitrogen, USA), 1× antimycotic/antibiotic mixture (Life Technologies, USA), 10 ng/mL huEGF (Millipore, USA) and 1 μg/mL Hydrocortizone (Sigma Aldrich, USA). Human U937 monocyte cells were purchased from ATCC (Manassas, Va., USA) and cultured in suspension in growth medium composed of RPMI 1640 (Fisherbrand, USA) supplemented with 2 mM L-Glutamine (Invitrogen), 10 mM HEPES (Fisherbrand, USA), 10% FBS (Fisherbrand), antimycotic/antibiotic mixture (Life Technologies, USA), 1 mM sodium pyruvate (Life Technologies, USA) and 4.5 mg/mL glucose (Sigma Aldrich, USA).
After 30 min of monocyte-EC interaction at 37° C., monocyte suspension was removed and the EC monolayers gently rinsed twice with PBS (to remove unbound monocytes) prior to fixation in 1% paraformaldehyde (PFA; Electron Microscopy Sciences, USA). Fluorescent images (10 per condition) of labeled U937 cells were then acquired using a Nikon Eclipse Ti microscope (Nikon, Japan) fitted with a Nikon Digital Sight DS-Qi1Mc camera and the number of adherent monocytes was counted using ImageJ software (NIH).

[2] = system: endothelial NO production; experiment: EC-secreted (extracellular) NO by Nitric Oxide Analyzer (NOA); assay type: cell-based, human; details: NTG 5 μM, L-NIO-treated ECs
Protocol: (§1) Two independent methods were used to measure the amount of NO produced by ECs. In the first method, ECs were treated overnight with L-NIO (5 mM)±NTG (5 μM) or NTG-NL (10 μg/mL), followed by incubation with a NO-sensitive fluorescent dye DAF-FM diacetate (2 μM; Life Technologies, USA) for 20 minutes at 37° C. Following dye loading, ECs were again treated with L-NIO and NTG during a recovery phase for an additional 1 h in regular growth medium. EC culture media was then rinsed once with Krebs-Henseleit Buffer (KHB) containing 125 mM NaCl, 4.74 mM KCl, 2.5 mM CaCl2, 1.2 mM KH2PO4 1.2 mM MgSO4, 5 mM NaHCO3 and 10 mM Glucose (Sigma Aldrich, USA), replaced with fresh KHB and immediately subjected to live cell fluorescence imaging using Nikon Eclipse Ti microscope. At least 30 cells per condition were analyzed for total cell fluorescence using ImageJ software (NIH). For the second method, a Nitric Oxide Analyzer (NOA; Sievers, USA) was used to measure EC-secreted NO in culture medium. For this measurement, confluent ECs were treated overnight with either L-NIO (5 mM)±NTG (5 μM) or NTG alone, followed by sequential 1 h incubations with KHB without and with L-NIO±NTG at 37° C. KHB conditioned medium (4 replicates per condition) was then collected and analyzed using NOA.

[3] = system: endothelial NO production; experiment: Intracellular NO by DAF-FM diacetate fluorescence; assay type: cell-based, human; details: NTG 5 μM
Protocol: as §1

[4] = system: endothelial ICAM-1 clustering; experiment: ICAM-1 clustering in U937 cell-EC co-cultures; assay type: cell-based, human; details: NTG 5 μM
Protocol: ECs were grown to confluence on glass coverslips under normal growth conditions and treated with L-NIO (5 mM)±[NTG (5 μM) or NTG-NL (5 μg/mL)] for 24 h. Next, a monocyte adhesion assay was performed (as described earlier) and the monocyte-EC co-cultures fixed, permeabilized with 0.1% Triton X-100, blocked with 2% bovine serum albumin (BSA; Millipore, USA), and sequentially incubated with primary anti-ICAM-1 mouse antibody (Santa Cruz Biotechnology, USA) and secondary FITC-conjugated DyLight 488 anti-mouse IgG (Vector Labs, USA). To visualize actin microfilaments, monocyte-EC co-cultures were incubated with Alexa Fluor 594-Phalloidin (BD Biosciences, USA). Coverslips were mounted onto glass slides and fluorescence images (15 per condition) were taken using a Nikon Eclipse Ti microscope fitted with a Nikon Digital Sight DS-Qi1Mc camera. ICAM-1 clustering index was determined using ImageJ by normalizing the total monocyte fluorescence (from at least 30 cells) to the background of the surrounding EC cytoplasm.

[5] = system: endothelial mitochondrial superoxide; experiment: Endothelial mitochondrial superoxide production (MitoSOX); assay type: cell-based, human; details: free NTG 100 μM (20-fold above effective dose), L-NIO-treated ECs
Protocol: ECs were plated at sub-confluence on gelatin-coated MatTek dishes under normal culture conditions and subjected to overnight treatment with either L-NIO (3 mM)±[NTG (5, 25, or 100 μM) or NTG-NL (5, 50 or 100 μg/mL)]. To detect mitochondrial superoxide, ECs were labeled with MitoSOX™ (Life Technologies, USA), a mitochondrial superoxide-sensitive fluorescent dye that is widely used to measure mitochondrial ROS production under various conditions, including NTG treatment. ECs were labeled with MitoSOX™ Red at a final dose of 5 μM in KHB for 10 minutes at 37° C., rinsed three times with KHB to remove excess dye and placed at 37° C. in KHB for an additional 10 minutes prior to live cell imaging. Fluorescence images (six per condition) were acquired using Nikon Eclipse Ti microscope and total cell fluorescence intensity from at least 20 cells was analyzed using ImageJ software.

[6] = system: isolated sheep pulmonary arteries; experiment: Pulmonary artery ring isometric tension: NTG-induced vasorelaxation after pretreatment
Protocol: All animal procedures were in accordance with the Animal Welfare Act, the Guiding Principles in the Care and Use of Animals approved by the Council of the American Physiological Society, the National Institutes of Health Guide for the Care and Use of Laboratory Animals, and Loma Linda University Institutional Animal Care and Use Committee (IACUC). Pregnant ewes were anesthetized with ketamine (10 mg/kg, IV) and midazolam (5 mg/kg, IV) and anesthesia maintained with inhalation of 1-3% isofluranein O2 throughout surgery as required. Ewes and Fetuses were euthanized with an overdose of Euthasol (pentobarbital sodium, 100 mg/kg) and phenytoin sodium (10 mg/kg; Virbac, Ft. Worth, Tex.).
To assess arterial vasorelaxation in response to NTG treatment, pulmonary arteries (4th-5th order) were harvested from newborn fetal sheep (gestational period between 138-141 days), dissected free of parenchyma and cut into 5 mm long rings (at least 8 per condition) in ice-cold HEPES buffer (Sigma Aldrich, USA). […] Following treatment, rings were mounted onto tungsten wires under 0.5 g of resting tension in organ baths containing KHB, gassed with 95% O2-5% CO2, and maintained at 37° C. Arterial rings were rinsed once with KHB, allowed to equilibrate for at least 30 minutes, and re-tensioned prior to addition of 125 mM KCl (Sigma Aldrich, USA) to ensure rings were still functional. Rings were rinsed three times to remove KCl, allowed to relax, and preconstricted with 10 μM Serotonin (Tocris Bioscience, USA) to achieve 100% contraction. Rings were then exposed to increasing concentrations of free NTG (1 nM to 100 μM) and subsequent recordings of concentration-response curves were acquired using a force displacement transducer (AD Instruments, New Zealand) and analyzed using Prism (Graphpad Software Inc).

[7] = in vivo; cited from earlier work

## O=[N+]([O-])OCC(CO[N+](=O)[O-])O[N+](=O)[O-] [NTG, Nitroglycerin]
[1]
  effect on U937 monocytic cell adhesion to ECs: dose-dependent inhibition
[1]; Homo sapiens, U-937, read-out: EC50, inhibition of human monocyte adhesion to NO-deficient human microvascular ECs
  EC50: 0.64 µM
[1]; L-NIO-treated ECs, adhesion back to level of untreated ECs
  effective anti-inflammatory NTG dose: 5 µM
[1]; NTG 5 μM
  U937 cell-EC adhesion after 4 hr treatment: significant inhibition of U937 cell-EC adhesion
[1]; free NTG 100 μM
  U937 cell-EC adhesion after 4 hr treatment: loses its therapeutic effect
[1]; free NTG 100 μM, L-NIO-treated ECs
  loss (decrease) in anti-inflammatory effect at high dose: ~2 fold
[1]; listed as Free NTG
  anti-inflammatory effect of free NTG at the amount equivalent to NTG-NL: does not produce a significant anti-inflammatory effect
[1]; listed as free NTG
  anti-inflammatory effect of free NTG at the amount equivalent to NTG-NL: failed to produce a significant anti-inflammatory effect
[2]
  recovery of EC-dependent (extracellular) NO production: complete recovery
[3]
  recovery of intracellular NO in L-NIO-treated cells: 79%
[4]
  effect on ICAM-1 clustering induced by L-NIO: inhibited
[5]
  increase in mitochondrial superoxide formation: 2 fold
[6]; Ovis aries, read-out: Mean IC50 of NTG-induced relaxation, arteries pretreated 4 h with free NTG 5 μM
  IC50: 0.25 µM
[6]; Ovis aries, read-out: Mean IC50 of NTG-induced relaxation, arteries pretreated 4 h with free NTG 100 μM
  IC50: 15 µM
[6]; Ovis aries, read-out: −Log IC50 of NTG-induced relaxation, arteries pretreated 4 h with free NTG 5 μM (converted), mean ± SEM
  IC50: 0.251 µM
[6]; Ovis aries, read-out: −Log IC50 of NTG-induced relaxation, arteries pretreated 4 h with free NTG 100 μM (converted), mean ± SEM
  IC50: 15.5 µM
[6]; arteries pretreated 4 h with free NTG 5 μM, mean ± SEM
  Maximal Relaxation (%): 69 ± 4 %
[6]; arteries pretreated 4 h with free NTG 100 μM, mean ± SEM
  Maximal Relaxation (%): 66 ± 9%
[6]; read-out: Mean IC50 of NTG-induced relaxation, arteries pretreated 4 h with free NTG 100 μM
  IC50: 15.5 µM
[7]
  time of clearance of NTG from bloodstream: 15 to 30 min
